Key:
tubulin [1] = test: Inhibition of microtubule assembly; assay type: biochemical, calf; conditions: 50 μM, preincubated 1 h at 37° C.
Experimental: (§1) Compounds were evaluated for their ability to inhibit tubulin assembly into microtubules by comparing the extent of cold-reversible assembly in the presence of each test compound with controls lacking the test compound. Tubulin was isolated from calf brain tissue by two cycles of assembly/disassembly as described by Vallee, R. B. in Methods in Enzymology, vol. 134, pp. 89-104. Assay mixtures contained 1 mg/ml of purified tubulin in 1 M sodium glutamate, pH 6.6, 1 millimolar (mM) MgCl2, and the test compound, which was added as a solution in DMSO. The final concentration of DMSO in each assay was 2% (v/v). Assay mixtures were preincubated at 37° C. for 1 h, then chilled on ice for 5 min. Microtubule assembly was initiated by addition of guanosine triphosphate (0.1 mM), and incubation at 37° C. Assembly was followed turbidimetrically at 350 nm for 20 minutes (min) using a temperature-controlled cell in a Cary 2200 spectrophotometer. Since microtubules undergo depolymerization at 0° C., assembly was confirmed by measuring the reduction in turbidity following incubation for 30 min at 0° C. The difference in absorbance before and after incubation for 30 min at 0° C. (ΔA350) represents the extent of microtubule assembly. Inhibition of assembly was calculated by subtracting the (ΔA350) values for treatments with test compounds from the (ΔA350) for controls without test compound, and expressing this difference as a percentage of the (ΔA350) value for the control. Results including test compound number, test compound concentration in micromoles per liter (μM) and percent inhibition are set forth in Table 11.

Colon cancer (HCT116) = test: Growth inhibition of human tumor cell lines: Colon cancer (HCT116); assay type: cell-based; conditions: HCT-116, cell line D = Colon cancer (HCT116), NCI testing
Experimental: (§2) Selected compounds were evaluated by the National Cancer Institute, Bethesda, Md. against 60 human tumor cell lines according to procedures described in Principles and Practices of Oncology, volume 3, issue number 10, pp. 1-12. Results of the testing against representative cell lines including the test compound number, and the GI50 values (μM) are set forth in Table 3. The GI50 value is the concentration required to inhibit cell growth by 50% as compared to untreated control cultures.

tubulin [2] = test: Effect of preincubation time with tubulin on inhibition of microtubule assembly; assay type: biochemical, calf; conditions: 16 μM
Experimental: as §1
Compound 14 (16 μM) was preincubated with tubulin under the conditions described in Example 4 for 0, 1, 2, 4 and 6 hours before initiating assembly by addition of guanosine triphosphate (0.1 mM), and incubation at 37° C. Inhibition of assembly was determined as in Example 4, and results including preincubation time and percent inhibition of assembly are set forth in Table 12.

Ovarian cancer (OVCAR8) = test: Growth inhibition of human tumor cell lines: Ovarian cancer (OVCAR8); assay type: cell-based; conditions: OVCAR-8, cell line G = Ovarian cancer (OVCAR8), NCI testing
Experimental: as §2

mouse lymphoma cells = test: Effect on mitosis in mouse lymphoma cells (visible chromosomes); assay type: cell-based; conditions: 2 μM, 7 hours
Experimental: Compound 14 was dissolved in DMSO at 0.8 mM and 75 microliters (μL) of this solution was added to tubes containing 30 ml of cell suspension at 1.2×10^5 /mL grown under the conditions described in Example 1. Cells in control tubes received 75 μL of DMSO alone. Tubes were gassed with 5% CO2, then incubated on a roller drum apparatus for 7 hours. The cells were treated with hypotonic medium (3-fold diluted growth medium) and fixed in acetic acid:methanol (1:3, v/v). After staining with aceto-orcein (method described in L. La Cour, Stain Technology, vol. 16, pp. 169-174 (1941)) the percentage of cells with visible chromosomes in treated and control cells was determined based on examination of 400 cells per sample.

CNS cancer (SF539) = test: Growth inhibition of human tumor cell lines: CNS cancer (SF539); assay type: cell-based; conditions: SF-539, cell line E = CNS cancer (SF539), NCI testing
Experimental: as §2

[3] = tested on: Small cell lung cancer (DMS 114); test: Growth inhibition of human tumor cell lines: Small cell lung cancer (DMS 114); assay type: cell-based; conditions: cell line C = Small cell lung cancer (DMS 114), NCI testing
Experimental: as §2

Melanoma (SKMEL-2) = test: Growth inhibition of human tumor cell lines: Melanoma (SKMEL-2); assay type: cell-based; conditions: SK-MEL-2, cell line F = Melanoma (SKMEL-2), NCI testing
Experimental: as §2

[4] = tested on: mouse lymphoma cell line L5178Y; test: Growth inhibition of mouse lymphoma cells (L5178Y), 48 h; assay type: cell-based; conditions: 48 hours; for inhibition at 2 µM: 2 micromolar; for inhibition at 10 µM: 10 micromolar, read-out: Inhibition of growth
Experimental: Effects of compounds on growth of mouse lymphoma cell line L5178Y, were determined as follows. Cells were grown in Fischer's medium (obtained from Life Technologies, Inc., Gaithersburg, Md.) containing 0.24 grams per liter (g/l) sodium pyruvate, 1.12 g/l surfactant (Pluronic F-68, from BASF Corporation, Parsippany, N.J.), and 10% by volume (10% v/v) heat-inactivated horse serum (obtained from Life Technologies, Inc) at 37° C. To 30 ml aliquots of cell suspension (2×10^4 cells per milliliter (mL)) in exponential growth phase were added test compounds dissolved in dimethylsulfoxide (DMSO) at various concentrations such that the final DMSO concentration in the mixtures was 0.25%. Tubes were gassed with 5% CO2 then incubated on a roller drum apparatus. After 48 hours the cells were treated with 0.1% trypsin (Life Technologies, Inc.,) for 10 minutes and counted in a Coulter Counter equipped with a 140 micrometer (μM) aperture. Percent inhibition of growth was calculated by comparing the number of cells in assays containing test compound with the number of cells in controls lacking the test compound.

[5] = tested on: Nonsmall cell lung cancer (NCIH522); test: Growth inhibition of human tumor cell lines: Nonsmall cell lung cancer (NCIH522); assay type: cell-based; conditions: NCI-H522, cell line B = Nonsmall cell lung cancer (NCIH522), NCI testing
Experimental: as §2

Leukemia (SR) = test: Growth inhibition of human tumor cell lines: Leukemia (SR); assay type: cell-based; conditions: cell line A = Leukemia (SR), NCI testing
Experimental: as §2

Renal cancer (CAKI1) = test: Growth inhibition of human tumor cell lines: Renal cancer (CAKI1); assay type: cell-based; conditions: CAKI-1, cell line H = Renal cancer (CAKI1), NCI testing
Experimental: as §2

[6] = Biological activity of enantiomers; conditions: vs corresponding R enantiomers; test not stated

Row | SMILES | Percent inhibition of microtubule assembly (tubulin [1]) [%] | GI50 (Colon cancer (HCT116)) [µM] | Percent inhibition of microtubule assembly (tubulin [2]; preincubation time 0 h) [%] | Percent inhibition of microtubule assembly (tubulin [2]; preincubation time 1 h) [%] | Percent inhibition of microtubule assembly (tubulin [2]; preincubation time 2 h) [%] | Percent inhibition of microtubule assembly (tubulin [2]; preincubation time 4 h) [%] | Percent inhibition of microtubule assembly (tubulin [2]; preincubation time 6 h) [%] | GI50 (Ovarian cancer (OVCAR8)) [µM] | Normal mitotic figures in treated cells (mouse lymphoma cells; vs control) | Number of cells with visible chromosomes (mouse lymphoma cells; vs control) | Percentage of cells with visible chromosomes (mouse lymphoma cells; control 3.9) [Percentage] | GI50 (CNS cancer (SF539)) [µM] | GI50 [3] [µM] | GI50 (Melanoma (SKMEL-2)) [µM] | inhibition at 2 µM [4] [%] | GI50 [5] [µM] | GI50 (Leukemia (SR)) [µM] | GI50 (Renal cancer (CAKI1)) [µM] | inhibition at 10 µM [4] [%] | Activity of S enantiomer relative to R enantiomer [6]
1 | CCC(C)(NC(=O)c1cc(Cl)cc(Cl)c1)C(=O)CCl (stereo not shown) [Compound 14] | 56.3 | 2.31 | 0 | 5.1 | 22.6 | 57.6 | 87.2 | 2.79 | lacking in the treated cells | produced an increase in the number of cells with visible chromosomes | 27.4 | 2.1 | 0.72 | 1.94 | 95 | 1.98 | 0.83 | 3.83 | – | –
2 | CC(C)(NC(=O)c1cc(Cl)cc(Cl)c1)C(=O)C(Br)Br [Compound 17] | 85.9 | 3.65 | – | – | – | – | – | 3 | – | – | – | 2.25 | 2.09 | 2.71 | 97 | 1.04 | 1.79 | 2.37 | – | –
3 | CCC(C)(NC(=O)c1cc(C)cc(C#N)c1)C(=O)CCl (stereo not shown) [Compound 23] | 50.5 | 3.28 | – | – | – | – | – | 3.43 | – | – | – | 2.55 | 2.19 | 2.56 | – | 2.05 | 0.65 | 2.81 | 95 | –
4 | CCC(C)(NC(=O)c1cc(Cl)cc(Cl)c1)C(=O)CSC#N (stereo not shown) [Compound 26] | 56.6 | 4.85 | – | – | – | – | – | 11.9 | – | – | – | 3.45 | 3.71 | 12.2 | – | 3.77 | 5.69 | 13.3 | 67 | –
5 | CC(C)(NC(=O)c1cc(Cl)cc(Cl)c1)C(=O)CCl [Compound 28] | 22.3 | 14.2 | – | – | – | – | – | 12.4 | – | – | – | 9.79 | 5.38 | 12.2 | – | 2.61 | 3.01 | 12.9 | 87 | –
6 | CCC(C)(NC(=O)c1cncc(Br)c1)C(=O)CCl (stereo not shown) [Compound 44] | 100.0 | 0.67 | – | – | – | – | – | 1.96 | – | – | – | 2.21 | 0.33 | 0.41 | 95 | 0.35 | 0.33 | 2.36 | – | –
7 | CC[C@](C)(NC(=O)c1cc(Cl)cc(Cl)c1)C(=O)CCl [S enantiomer of compound 14] | – | – | – | – | – | – | – | – | – | – | – | – | – | – | – | – | – | – | – | more active
8 | CC[C@](C)(NC(=O)c1cc(Cl)c(C)c(Cl)c1)C(=O)CCl [S enantiomer of compound 32] | – | – | – | – | – | – | – | – | – | – | – | – | – | – | – | – | – | – | – | more active

— patent US6140362A, “Method for inhibiting the growth of mammalian cells” (Rohm and Haas Company, priority 1997, dated 2000)
